# Legend:
# TNFα = assay: LPS-stimulated TNFα production in monocytes (ELISA); assay type: cell-based; settings: human monocytes, final concentration 50 μM, 100 μM or 200 μM, 5 hours, then LPS 4 hours
# Experimental: PBMCs were isolated in the same manner as in item (1) of Example 4. PBMCs were suspended in RPMI 1640 medium containing 5% human serum of blood type-AB, 0.1 mM nonessential amino acid, 1 mM sodium pyruvate, 2 mM L-glutamine (hereinabove manufactured by Bio Whittaker), 10 mM HEPES (manufactured by nakalai tesque), and 1% streptomycin-penicillin (manufactured by Gibco BRL) (hereinafter simply referred to as “5HRPMI medium”) so as to have a concentration of 2×10^6 cells/ml. Thereafter, the suspension was spread on a 24-well cell culture plate (manufactured by Falcon) in a volume of 1 ml/well, and the cells were incubated in a wet-type incubator at 37° C. and 5% CO2 for 1.5 hours. After 1.5 hours, the non-adherent cells were removed by suction, and each well was washed with RPMI 1640 medium, and 1 ml of the 5HRPMI medium was added to the wells, to give monocytes.
# To the monocytes obtained above was added in each well 10 μl of a 1 mM, 2 mM or 4 mM aqueous DGE solution (each having a final concentration of 10 μM, 20 μM or 40 μM), or a 5 mM, 10 mM or 20 mM aqueous agarobiose solution (each having a final concentration of 50 μM, 100 μM or 200 μM), or 10 μl of water as a control (i.e. each of concentrations of DGE and agarobiose being 0 μM), and the cells were incubated in a wet-type incubator at 37° C. and 5% CO2 for 5 hours. […]
# interleukin-10 (IL-10) = assay: LPS-induced IL-10 production in RAW 264.7 cells (ELISA); assay type: cell-based; settings: final concentration 20 μM, 5 hours, then LPS 18 hours, IL-10 in culture supernatant by ELISA
# Experimental: RAW 264.7 cells (ATCC TIB 71) were suspended in a Dulbecco's modified Eagle's medium (manufactured by Bio Whittaker; 12-604F) containing 10% fetal bovine serum (manufactured by Gibco), so as to have a concentration of 3×10^5 cells/ml. The cell suspension was added to each well of a 48-well microtiter plate in a volume of 0.5 ml each. The cells were cultured at 37° C. in the presence of 5% CO2 gas overnight. To each well was added 5 μl of a 2 mM DGE aqueous solution (final concentration: 20 μM), and the cells were cultured for additional 5 hours. Thereafter, 5 μl of a 100 μg/ml lipopolysaccharide (LPS, manufactured by Sigma, L-2012) aqueous solution was added thereto, and the cells were cultured for 18 hours, and thereafter the culture supernatant was recovered. The content of the interleukin-10 (IL-10) in the culture supernatant was assayed by the enzyme immuno-sandwich assay. Here, the group with no addition of DGE and LPS aqueous solution (control) was set as a negative control, and the group with addition of LPS aqueous solution (control+LPS) alone was set as a positive control. In addition, all of the assays were carried out twice.
# interleukin-6 (IL-6) = assay: TPA-induced IL-6 production in peritoneal macrophage (ELISA); assay type: cell-based; settings: mouse peritoneal macrophage, final concentrations 20 μM and 10 μM, 14 hours, IL-6 in culture supernatant by ELISA
# Experimental: Four milliliters of a 10% fetal bovine serum-containing RPMI 1640 medium (manufactured by Bio Whittaker, 12-702F) was intraperitoneally injected to ddy mouse (Nippon SLC, female, 7-weeks old), and the mouse was well massaged, and the medium was taken out to obtain peritoneal cells. The peritoneal cells were suspended in the 10% fetal bovine serum-containing RPMI 1640 medium so as to have a concentration of 10^6 cells/ml, and dispensed into 48-well microtiter plate in a volume of 500 μl each. The peritoneal cells were cultured at 37° C. for 2 hours in the presence of 5% CO2 gas. Thereafter, the culture supernatant was removed to give adherent cells to be used as peritoneal macrophage. To each well was freshly dispensed a Dulbecco's modified Eagle's medium (manufactured by Bio Whittaker; 12-917F) without phenol red containing 10% fetal bovine serum and 2 mM L-glutamine in a volume of 500 μl. […] The content of interleukin-6 (IL-6) in the culture supernatant was assayed by enzyme immuno-sandwich assay (ELISA: Matched antibody Pair SamplePak mouse IL-6, manufactured by Endogen). Here, the group with no addition of DGE and TPA aqueous solution (control) was set as a negative control, and the group with addition of TPA aqueous solution alone (control+TPA) was set as a positive control. In addition, all of the assays were carried out twice.
# HO1 protein = HO1 protein induction in RAW 264.7 cells (Western blot); assay type: cell-based; parameters: key to Intensity of Bands of HO1 Protein: those showing no bands are indicated by “−,”; the intensities of the bands are indicated by +−, +, ++ in the ascending order of the intensities of the bands; the intensities of the bands are indicated by +−, +, ++ in the ascending order of the intensities of the bands; the intensities of the bands are indicated by +−, +, ++ in the ascending order of the intensities of the bands; settings: for induction action for HO production (band ascribed to HO1 protein): 15 hours, DGE at 10 to 40 μM
# Experimental: RAW 264.7 cells (ATCC TIB 71) were suspended in a Dulbecco's modified Eagle's medium (manufactured by Bio Whittaker; 12-604F) containing 10% fetal bovine serum (manufactured by Gibco), so as to have a concentration of 3×10^5 cells/ml. The cell suspension was added to each well of a 6-well microtiter plate in a volume of 5 ml each. The cells were cultured at 37° C. in the presence of 5% CO2 gas overnight. To each well was added 50 μl of 4 mM, 2 mM or 1 mM DGE aqueous solution (each of final concentrations: 40 μM, 20 μM or 10 μM), and the cells were cultured for 15 hours. […] The cells were harvested by peeling off the cells from the plate with a scraper. The harvested cells were suspended in 0.1 M Tris-HCl buffer (pH 7.5) containing 0.05 mM pepstatin (manufactured by Sigma, P5318), 0.2 mM leupeptin (manufactured by Sigma, L2884), 1 mM phenylmethylsulfonyl fluoride (manufactured by nakalai tesque, 273-27), 10 mM disodium dihydrogenethylenediaminetetraacetate and 0.1% Triton X-100, and subjected to freezing and thawing once. Thereafter, the supernatant obtained by centrifugation was used as a protein fraction. The protein content in the protein fraction was assayed by Micro BCA Protein Assay Reagent (one manufactured by Pierce sold by Takara Shuzo Co., Ltd., P7411). Each of the resulting protein fraction samples was mixed with an equal volume of 0.125 M Tris-HCl buffer (pH 6.8) containing 4% sodium lauryl sulfate (SDS), 2% 2-mercaptoethanol,
# 0.001% Bromophenol Blue and 20% glycerol, and the mixture was treated at 100° C. for 5 minutes. A mixture containing a protein in an amount of 10 μg or so was loaded on 12.5% SDS-polyacrylamide gel, and electrophoresed with a constant current of 20 mA. In a blotting buffer containing 48 mM Tris, 39 mM glycine, 20% methanol, 0.0375% SDS, the gel after the electrophoresis was transferred to a PDVF membrane (manufactured by Millipore Corporation, IPVHOOO 10) in accordance with the attached protocol, using transblot SD cell semi-drive blotting device (manufactured by BioRad), at a constant voltage of 15 V for 25 minutes. The transferred PVDF membrane was blocked overnight in a Block Ace (manufactured by DAINIPPON PHARMACEUTICAL CO., LTD., UK-B25) solution at 4° C. The blocked membrane was washed for 15 minutes thrice with phosphate-buffered physiological saline containing 0.1% Tween 20 under gentle shaking. Thereafter, the membrane was subjected to the reaction under gentle shaking in phosphate-buffered physiological saline containing 10% Block Ace with a 200 ng/ml anti-HOl antibody (N-19, manufactured by Santa Cruz, sc-7696) and 0.1% Tween 20 at room temperature for 1 hour, and was washed for 15 minutes thrice with phosphate-buffered physiological saline containing 0.1% Tween 20 under gentle shaking. Next, the membrane was subjected to the reaction under gentle shaking in phosphate-buffered physiological saline with 10% Block Ace with 0.1% peroxidase-conjugated rabbit anti-goat IgG (H+L) antibody (manufactured by Zymed, 61-1620) and 0.1% Tween 20 at room temperature for 1 hour, and was washed for 15 minutes five times with phosphate-buffered physiological saline containing 0.1% Tween 20 under gentle shaking. Subsequently, a PVDF membrane was stained by using Western blot Chemiluminescence Reagent Plus (one manufactured by NEN Life Science Products sold by Daiichikagaku, NEL103) in accordance with the attached protocol, and sensitized on an X-ray film (manufactured by Kodak, CAT 1651454). The sensitized film was developed with FPM800 (manufactured by Fuji Photo Film Co., Ltd.).
# As a result, there could be confirmed a band ascribed to HO1 protein in the group with addition of DGE. […] In the table, + symbols were given in accordance with the intensity of the band for HO1 protein. In other words, in Table 3, those showing no bands are indicated by “−,” and the intensities of the bands are indicated by +−, +, ++ in the ascending order of the intensities of the bands.
compound,measurement,setting,value
OC[C@H]1O[C@@H](O[C@H]2[C@H]3OC[C@@H]2OC(O)[C@H]3O)[C@H](O)[C@@H](O)[C@H]1O (mixture of isomers) [agarobiose],inhibition of LPS-stimulated TNFα production,TNFα,inhibition
"O=C1C=CC(CO)OC1O [κ-DGE, D-Glycero-1,5-epoxy-1αβ,6-dihydroxy-cis-hex-3-en-2-one]",inhibition of LPS-induced IL-10 production,interleukin-10 (IL-10),inhibitory action
same,inhibition of TPA-induced IL-6 production,interleukin-6 (IL-6); listed as K-DGE,inhibitory action
same,induction action for HO production (band ascribed to HO1 protein),HO1 protein,induction action
"N[C@@H](CCC(=O)N[C@@H](CSC1CC2(O)OCC1OC2O)C(=O)NCC(=O)O)C(=O)O (stereo partly drawn) [DGE-GSH, 5-L-glutathion-S-yl-2-hydroxy-3,7-dioxabicyclo[2.2.2]octan-1-ol]",inhibition of LPS-induced IL-10 production,interleukin-10 (IL-10),inhibitory action
same,inhibition of TPA-induced IL-6 production,interleukin-6 (IL-6),inhibitory action
same,induction action for HO production (band ascribed to HO1 protein),HO1 protein,induction action
same,inhibitory activity for cancer cell proliferation,HL-60 cells,active
"CCCCC/C=C/C=C1/C(=O)C=C[C@@H]1C/C=C\CCCC(=O)O [15-Deoxy-Δ12,14 prostaglandin J2, reference compound]",Intensity of Bands of HO1 Protein,"HO1 protein; 5 μl of 3 mM dimethyl sulfoxide solution added to 5 ml well, positive control",++
